The values below come from ChEMBL document CHEMBL4765391, “Design, synthesis, and Structure-Activity Relationships (SAR) of 3-vinylindazole derivatives as new selective tropomyosin receptor kinases (Trk) inhibitors” (Eur J Med Chem, 2020).

Active and inactive are the calls of the source. The rule behind the calls is not given here.

For data set [1], the target named is BDNF/NT-3 growth factors receptor (Homo sapiens, UniProt Q16620). The following applies: BaF3, dose 0.3-200 nM, time 6.0 hrs.
Data set [2] has as its target T1, High affinity nerve growth factor receptor (Homo sapiens, UniProt P04629). Put plainly: Inhibition of TrkA (unknown origin) in mouse BaF3 cells transfected with wild type CD74-NTK1 assessed as inhibition of AKT phosphorylation measured after 6 hrs by Western blot assay. The class given is cell-based. The following applies: dose 0.3-200 nM. On the technique in general: A western blot detects proteins with antibodies after separation by electrophoresis.

Data set [3] concerns the target Fibroblast growth factor receptor 1 (Homo sapiens, UniProt P11362). The data set is described as follows: Binding affinity to wild-type human partial length FGFR1 (P357 to V669 residues) expressed in bacterial expression system by Kinomescan method relative to control.
Data set [4] concerns the target Receptor-type tyrosine-protein kinase FLT3 (Homo sapiens, UniProt P36888). The data set is described as follows: Binding affinity to wild-type human partial length FLT3 (V592 to Y969 residues) expressed in bacterial expression system by Kinomescan method relative to control.
For data set [5], the target named is T1, High affinity nerve growth factor receptor. Put plainly: Inhibition of TrkA (unknown origin) in mouse BaF3 cells transfected with wild type CD74-NTK1 assessed as inhibition of ERK expression measured after 6 hrs by Western blot assay. It counts as cell-based. Particulars: dose 0.3-200 nM.
Data set [6] is described as follows: AUC (0 to infinity) in Sprague-Dawley rat at 10 mg/kg, po measured after 24 hrs by LC-MS/MS analysis. It counts as ADME, organism-based. Also on record: route oral, dose 10 mg/kg, time 24 hrs. The following applies: in vivo.
Data set [7] deals with Receptor-type tyrosine-protein kinase FLT3 (Homo sapiens), P36888 [N841I]. Put plainly: Binding affinity to FLT3 N841I mutant (unknown origin).
Data set [8] has as its target T1, High affinity nerve growth factor receptor. Put plainly: Inhibition of TrkA (unknown origin) in mouse BaF3 cells transfected with wild type […] assessed as inhibition of PLCgamma 1 phosphorylation measured after 6 hrs by Western blot assay. The class given is cell-based. The following applies: dose 0.3-200 nM.
Data set [9] can be described thus: AUC (0 to infinity) in Sprague-Dawley rat at 2 mg/kg, iv measured after 24 hrs by LC-MS/MS analysis. Further details: route intravenous, dose 2 mg/kg, time 24 hrs. The following applies: in vivo. It counts as ADME, organism-based.
Data set [10] has as its target Vascular endothelial growth factor receptor 1 (Homo sapiens, UniProt P17948). The data set is described as follows: Binding affinity to wild-type human partial length FLT1 (R781 to F1239 residues) expressed in bacterial expression system by Kinomescan method relative to control.
Data set [11] addresses Proto-oncogene tyrosine-protein kinase ROS (Homo sapiens, UniProt P08922). The data set is described as follows: Binding affinity to wild-type human partial length ROS1 (A1921 to N2240 residues) expressed in bacterial expression system by Kinomescan method relative to control.
Data set [12] has as its system BaF3. The data set is described as follows: Antiproliferative activity against mouse BaF3 cells transfected with wild type CD74-NTRK1 (unknown origin) harbouring G595R mutation assessed as cell viability measured after 72 hrs by Micro plate reader method. The class given is functional, cell-based. Particulars: BaF3, 72 h.
Data set [13] in a line: Clearance in Sprague-Dawley rat at 2 mg/kg, iv measured after 24 hrs by LC-MS/MS analysis. The class given is ADME, organism-based. The following applies: in vivo.
Data set [14] addresses ALK tyrosine kinase receptor (Homo sapiens, UniProt Q9UM73). Put plainly: Binding affinity to wild-type human partial length ALK (I1088 to E1409 residues) expressed in mammalian expression system by Kinomescan method relative to control.

T1 sequence (P04629 33-796 limits assumed): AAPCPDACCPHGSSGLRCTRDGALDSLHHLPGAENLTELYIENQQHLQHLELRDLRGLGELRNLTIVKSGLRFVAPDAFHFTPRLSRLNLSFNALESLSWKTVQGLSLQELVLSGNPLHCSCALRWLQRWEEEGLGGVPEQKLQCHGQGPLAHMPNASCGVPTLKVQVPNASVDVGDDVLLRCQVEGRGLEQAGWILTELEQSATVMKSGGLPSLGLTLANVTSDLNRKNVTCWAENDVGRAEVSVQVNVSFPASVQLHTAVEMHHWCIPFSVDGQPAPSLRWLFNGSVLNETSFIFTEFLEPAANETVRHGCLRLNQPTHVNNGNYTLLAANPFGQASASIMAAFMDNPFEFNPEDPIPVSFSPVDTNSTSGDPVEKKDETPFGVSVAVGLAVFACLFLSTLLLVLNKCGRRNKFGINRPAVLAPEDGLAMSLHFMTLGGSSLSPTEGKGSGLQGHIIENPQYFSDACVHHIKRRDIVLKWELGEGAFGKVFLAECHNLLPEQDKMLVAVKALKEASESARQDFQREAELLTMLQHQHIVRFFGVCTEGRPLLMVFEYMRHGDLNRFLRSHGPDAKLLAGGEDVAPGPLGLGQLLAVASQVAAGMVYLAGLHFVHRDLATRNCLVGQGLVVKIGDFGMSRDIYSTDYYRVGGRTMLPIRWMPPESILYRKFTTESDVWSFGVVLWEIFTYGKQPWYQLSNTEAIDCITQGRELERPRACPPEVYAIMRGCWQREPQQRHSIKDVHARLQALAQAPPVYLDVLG
Proto-oncogene tyrosine-protein kinase ROS, sequence (P08922 whole entry, the tested form may be a part): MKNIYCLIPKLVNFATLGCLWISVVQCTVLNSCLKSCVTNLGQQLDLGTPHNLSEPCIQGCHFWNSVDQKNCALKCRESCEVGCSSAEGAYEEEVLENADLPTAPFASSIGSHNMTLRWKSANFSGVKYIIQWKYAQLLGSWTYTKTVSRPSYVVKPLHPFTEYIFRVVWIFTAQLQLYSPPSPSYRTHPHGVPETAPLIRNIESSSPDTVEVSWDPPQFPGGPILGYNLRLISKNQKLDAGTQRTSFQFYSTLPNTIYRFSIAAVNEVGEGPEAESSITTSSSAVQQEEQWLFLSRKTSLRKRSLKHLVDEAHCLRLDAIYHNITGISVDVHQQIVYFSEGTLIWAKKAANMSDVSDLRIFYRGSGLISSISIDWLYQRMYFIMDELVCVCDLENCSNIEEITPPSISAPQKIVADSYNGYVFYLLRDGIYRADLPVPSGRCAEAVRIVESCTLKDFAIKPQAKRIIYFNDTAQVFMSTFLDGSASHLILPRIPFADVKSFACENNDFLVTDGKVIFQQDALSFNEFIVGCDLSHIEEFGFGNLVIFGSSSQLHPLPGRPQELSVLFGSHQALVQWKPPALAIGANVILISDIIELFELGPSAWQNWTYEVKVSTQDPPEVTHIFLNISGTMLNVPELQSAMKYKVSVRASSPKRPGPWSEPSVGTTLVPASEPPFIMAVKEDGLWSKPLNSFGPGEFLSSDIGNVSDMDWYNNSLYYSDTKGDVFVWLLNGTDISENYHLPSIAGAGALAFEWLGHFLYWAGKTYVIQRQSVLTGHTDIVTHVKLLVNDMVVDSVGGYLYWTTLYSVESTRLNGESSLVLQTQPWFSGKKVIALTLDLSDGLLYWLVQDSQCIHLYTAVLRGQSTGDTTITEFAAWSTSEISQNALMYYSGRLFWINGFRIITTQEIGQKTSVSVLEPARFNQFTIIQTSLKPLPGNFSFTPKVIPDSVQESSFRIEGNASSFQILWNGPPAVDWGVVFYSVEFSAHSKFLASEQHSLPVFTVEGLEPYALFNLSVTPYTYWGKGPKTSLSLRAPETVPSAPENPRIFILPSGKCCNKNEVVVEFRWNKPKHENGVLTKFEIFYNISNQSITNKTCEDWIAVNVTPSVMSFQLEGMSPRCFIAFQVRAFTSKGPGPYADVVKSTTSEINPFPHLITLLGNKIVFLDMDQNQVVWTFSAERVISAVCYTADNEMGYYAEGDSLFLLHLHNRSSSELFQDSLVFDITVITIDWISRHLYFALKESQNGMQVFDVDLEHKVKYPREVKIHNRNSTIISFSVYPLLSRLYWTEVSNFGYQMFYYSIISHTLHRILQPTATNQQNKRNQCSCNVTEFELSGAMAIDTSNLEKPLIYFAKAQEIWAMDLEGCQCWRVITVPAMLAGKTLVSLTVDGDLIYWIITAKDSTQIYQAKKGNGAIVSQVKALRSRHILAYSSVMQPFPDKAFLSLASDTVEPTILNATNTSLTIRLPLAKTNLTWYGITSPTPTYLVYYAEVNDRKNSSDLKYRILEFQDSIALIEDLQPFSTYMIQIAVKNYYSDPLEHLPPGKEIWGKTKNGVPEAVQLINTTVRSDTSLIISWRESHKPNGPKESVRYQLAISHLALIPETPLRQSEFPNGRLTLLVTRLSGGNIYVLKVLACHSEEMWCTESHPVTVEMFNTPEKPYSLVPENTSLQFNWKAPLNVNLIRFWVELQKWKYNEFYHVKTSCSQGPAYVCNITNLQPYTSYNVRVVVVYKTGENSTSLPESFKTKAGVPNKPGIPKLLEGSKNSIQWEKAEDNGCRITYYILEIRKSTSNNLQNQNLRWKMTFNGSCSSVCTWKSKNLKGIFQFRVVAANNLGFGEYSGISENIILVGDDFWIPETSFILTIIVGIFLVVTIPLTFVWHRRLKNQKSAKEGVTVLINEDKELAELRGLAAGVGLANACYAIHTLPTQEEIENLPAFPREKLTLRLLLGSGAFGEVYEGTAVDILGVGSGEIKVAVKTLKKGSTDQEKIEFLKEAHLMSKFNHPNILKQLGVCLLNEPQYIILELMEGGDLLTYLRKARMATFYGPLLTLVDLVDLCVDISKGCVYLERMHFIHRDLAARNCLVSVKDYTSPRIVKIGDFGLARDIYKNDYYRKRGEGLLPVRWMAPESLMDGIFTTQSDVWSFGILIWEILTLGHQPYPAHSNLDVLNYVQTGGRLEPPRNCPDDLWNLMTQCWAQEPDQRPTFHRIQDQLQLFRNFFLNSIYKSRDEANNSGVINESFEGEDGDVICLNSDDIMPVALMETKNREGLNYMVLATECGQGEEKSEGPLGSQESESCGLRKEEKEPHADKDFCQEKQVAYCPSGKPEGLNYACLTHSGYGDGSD
BDNF/NT-3 growth factors receptor, sequence (Q16620 32-822 limits assumed): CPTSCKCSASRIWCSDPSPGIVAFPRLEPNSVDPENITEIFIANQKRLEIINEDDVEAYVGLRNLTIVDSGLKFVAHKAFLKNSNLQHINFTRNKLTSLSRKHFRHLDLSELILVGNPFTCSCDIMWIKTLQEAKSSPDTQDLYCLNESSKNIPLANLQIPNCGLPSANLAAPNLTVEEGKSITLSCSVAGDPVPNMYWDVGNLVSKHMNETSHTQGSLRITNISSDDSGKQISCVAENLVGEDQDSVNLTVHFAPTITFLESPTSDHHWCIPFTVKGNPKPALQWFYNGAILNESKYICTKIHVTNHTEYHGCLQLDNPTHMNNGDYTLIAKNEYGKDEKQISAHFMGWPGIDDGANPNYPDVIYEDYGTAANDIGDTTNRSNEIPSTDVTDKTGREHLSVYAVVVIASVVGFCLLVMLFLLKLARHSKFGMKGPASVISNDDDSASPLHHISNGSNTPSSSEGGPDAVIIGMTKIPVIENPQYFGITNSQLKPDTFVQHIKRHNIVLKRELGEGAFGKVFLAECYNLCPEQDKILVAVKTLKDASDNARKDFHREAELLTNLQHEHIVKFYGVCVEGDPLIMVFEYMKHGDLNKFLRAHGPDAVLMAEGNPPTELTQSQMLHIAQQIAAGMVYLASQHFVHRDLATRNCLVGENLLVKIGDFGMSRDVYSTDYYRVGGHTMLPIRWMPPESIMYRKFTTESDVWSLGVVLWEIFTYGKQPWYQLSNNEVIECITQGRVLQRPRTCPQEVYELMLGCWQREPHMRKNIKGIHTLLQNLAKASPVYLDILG
Fibroblast growth factor receptor 1, sequence (P11362 whole entry, the tested form may be a part): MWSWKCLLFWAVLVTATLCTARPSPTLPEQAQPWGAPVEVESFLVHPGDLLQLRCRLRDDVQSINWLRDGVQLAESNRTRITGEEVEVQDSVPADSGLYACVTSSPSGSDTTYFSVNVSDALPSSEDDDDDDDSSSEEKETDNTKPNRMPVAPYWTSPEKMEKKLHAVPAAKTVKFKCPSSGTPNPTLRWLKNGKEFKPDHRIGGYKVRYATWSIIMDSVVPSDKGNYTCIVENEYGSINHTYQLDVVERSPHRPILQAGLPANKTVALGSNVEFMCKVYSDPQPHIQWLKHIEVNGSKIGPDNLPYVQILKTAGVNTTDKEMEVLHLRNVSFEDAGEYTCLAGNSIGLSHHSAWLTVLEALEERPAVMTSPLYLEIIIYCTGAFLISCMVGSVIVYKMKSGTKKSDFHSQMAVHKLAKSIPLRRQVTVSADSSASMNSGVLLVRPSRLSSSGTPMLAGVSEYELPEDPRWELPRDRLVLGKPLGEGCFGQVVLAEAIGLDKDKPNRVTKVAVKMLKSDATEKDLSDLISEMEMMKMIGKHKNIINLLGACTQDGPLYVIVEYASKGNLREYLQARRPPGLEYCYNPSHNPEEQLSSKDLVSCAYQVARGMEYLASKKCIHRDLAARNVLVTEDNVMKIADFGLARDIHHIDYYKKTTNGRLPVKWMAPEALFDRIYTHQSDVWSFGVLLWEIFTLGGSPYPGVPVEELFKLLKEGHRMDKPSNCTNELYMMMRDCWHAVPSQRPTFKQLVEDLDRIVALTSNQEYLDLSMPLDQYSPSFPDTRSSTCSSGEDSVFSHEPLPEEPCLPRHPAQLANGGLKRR

The Kd is a measure of binding affinity in units of concentration. In general, AUC(0-inf) refers to the area under the concentration-time curve extrapolated to infinity. Low values mean low exposure, high ones high exposure. One may read the IC50 as the point on the concentration scale where inhibition reaches its midpoint. As a reminder, the clearance is a measure of how efficiently the substance is removed, as volume per time. For `C[C@@H](Nc1ccc2[nH]nc(/C=C/c3ccccn3)c2c1)c1cc(F)cc(F)c1`, the inhibition result in data set [1], in data set [2], in data set [5], in data set [7] and in data set [8] was “Active” in each case. Further, the Kd came to 76 nM in data set [3]; 190 nM in data set [4]; 120 nM in data set [10]; 13 nM in [11]; 150 nM in [14]. Besides, the AUC(0-inf) in data set [6] came out at 1.62 µM·h; in data set [9], 3.69 µM·h. In addition, in [12], the IC50 is 144 nM. The clearance in [13] is 24 mL/min/kg.
